Assays:
Assay type in all cases: in vivo
Set-up in all cases: key: 0 is no effect; 10 is complete control
[1] = tested on: smallflower flatsedge (Cyperus difformis); assay: Test B flood test
Outline: (§1)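 Read-out is a visual response score from 0 (no effect) to 10 (complete control), assigned by comparison with untreated controls. Treatment was applied at the 2-leaf stage, and plants stayed in the greenhouse for twelve to sixteen days before scoring.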

[2] = tested on: bamyardgrass (Echinochloa crus-galli); assay: Test B flood test
Outline: as §1

[3] = tested on: duck salad (Heteranthera limosa); assay: Test B flood test
Outline: as §1

rice (Oryza sativa) = assay: Test B flood test
Outline: as §1

[4] = tested on: pigweed (Amaranthus retroflexus); assay: Test B pre-/postemergence
Outline: (§2)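 Compounds in a surfactant-containing, non-phytotoxic solvent blend are applied to freshly planted seed (preemergence) and, concurrently, to seedlings of 2 to 18 cm at 1–4 leaves (postemergence). Plants stay in the greenhouse twelve to sixteen days and are then scored visually from 0 (no effect) to 10 (complete control).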

[5] = tested on: velvetleaf (Abutilon theophrasti); assay: Test B pre-/postemergence
Outline: as §2

corn (Zea mays) = assay: Test B pre-/postemergence; conditions: for Corn plant response rating: Preemergence
Outline: as §2

wild oat (Avena fatua) = assay: Test B pre-/postemergence
Outline: as §2

[6] = tested on: wheat (Triticum aestivum); assay: Test B pre-/postemergence
Outline: as §2

[7] = tested on: broadleaf signalgrass (Brachiaria decumbens); assay: Test B pre-/postemergence; conditions: for B. signalgrass plant response rating: Preemergence
Outline: as §2

[8] = tested on: cocklebur (Xanthium strumarium); assay: Test B pre-/postemergence; conditions: for Cocklebur plant response rating: Preemergence
Outline: as §2

[9] = tested on: purple nutsedge (Cyperus rotundus); assay: Test B pre-/postemergence
Outline: as §2

[10] = tested on: blackgrass (Alopecurus myosuroides); assay: Test B pre-/postemergence; conditions: for Blackgrass plant response rating: Preemergence
Outline: as §2

[11] = tested on: sugar beet (Beta vulgaris); assay: Test B pre-/postemergence
Outline: as §2

rape (Brassica napus) = assay: Test B pre-/postemergence
Outline: as §2

[12] = tested on: crabgrass (Digitaria sanguinalis); assay: Test B pre-/postemergence; conditions: for Crabgrass plant response rating: Preemergence
Outline: as §2

soybean (Glycine max) = assay: Test B pre-/postemergence
Outline: as §2

[13] = tested on: giant foxtail (Setaria faberii); assay: Test B pre-/postemergence
Outline: as §2

[14] = tested on: momingglory (Ipomoea hederacea); assay: Test B pre-/postemergence
Outline: as §2

[15] = tested on: bedstraw (Galium aparine); assay: Test B pre-/postemergence; conditions: for Bedstraw plant response rating: Preemergence
Outline: as §2

[16] = Rate 62 g/ha, Postemergence (flood test)
[17] = Rate 125 g/ha, Postemergence section (flood test species)
[18] = Rate 250 g/ha, Postemergence (flood test species)
[19] = Rate 125 g/ha, Postemergence, flood test
[20] = Rate 250 g/ha, Postemergence (so in the source)

COc1cnc(-n2ccc(C(F)(F)F)n2)nc1Cc1cccc(C(F)(F)F)c1 [Compound 45]
0: Plant response rating, S. Flatsedge [1, 16] | S. Flatsedge plant response rating [1, 17] | Plant response rating, S. Flatsedge [1, 18] | Plant response rating, Barnyardgrass [2, 16] | Plant response rating, Barnyardgrass [2, 19] | Plant response rating, Barnyardgrass [2, 18] | Plant response rating, Ducksalad [3, 16] | Plant response rating, Ducksalad [3, 19] | Plant response rating, Ducksalad [3, 18] | Plant response rating, Rice (rice (Oryza sativa); [16]) | Rice plant response rating (rice (Oryza sativa); [17]) | Plant response rating, Rice (rice (Oryza sativa); [18]) | Plant response rating, Redroot pigweed ([4]; Rate 62 g/ha, Postemergence) | Redroot pigweed plant response rating ([4]; Rate 62 g/ha, Preemergence) | Redroot pigweed plant response rating ([4]; Rate 125 g/ha, Postemergence) | Redroot pigweed plant response rating ([4]; Rate 125 g/ha, Preemergence) | Plant response rating, Redroot pigweed ([4]; Rate 250 g/ha, Postemergence) | Plant response rating, Redroot pigweed [4, 20] | Plant response rating, Velvetleaf ([5]; Rate 62 g/ha, Postemergence) | Velvetleaf plant response rating ([5]; Rate 62 g/ha, Preemergence) | Velvetleaf plant response rating ([5]; Rate 125 g/ha, Postemergence) | Plant response rating, Velvetleaf ([5]; Rate 125 g/ha, Preemergence) | Plant response rating, Velvetleaf ([5]; Rate 250 g/ha, Postemergence) | Plant response rating, Velvetleaf [5, 20] | Plant response rating, Corn (corn (Zea mays); Rate 62 g/ha, Postemergence) | Corn plant response rating (corn (Zea mays); Rate 62 g/ha) | Plant response rating, Corn (corn (Zea mays); Rate 125 g/ha, Postemergence) | Corn plant response rating (corn (Zea mays); Rate 125 g/ha) | Plant response rating, Corn (corn (Zea mays); Rate 250 g/ha, Postemergence) | Plant response rating, Corn (corn (Zea mays); [20]) | Wild oats plant response rating (wild oat (Avena fatua); Rate 62 g/ha, Postemergence) | Wild oats plant response rating (wild oat (Avena fatua); Rate 62 g/ha, Preemergence) | Wild oats plant response rating (wild oat (Avena fatua); Rate 125 g/ha, Postemergence) | Plant response rating, Wild oats (wild oat (Avena fatua); Rate 125 g/ha, Preemergence) | Plant response rating, Wild oats (wild oat (Avena fatua); Rate 250 g/ha, Postemergence) | Plant response rating, Wild oats (wild oat (Avena fatua); [20]) | Wheat plant response rating ([6]; Rate 62 g/ha, Postemergence) | Wheat plant response rating ([6]; Rate 62 g/ha, Preemergence) | Wheat plant response rating ([6]; Rate 125 g/ha, Postemergence) | Plant response rating, Wheat ([6]; Rate 125 g/ha, Preemergence) | Plant response rating, Wheat ([6]; Rate 250 g/ha, Postemergence) | Plant response rating, Wheat [6, 20] | Plant response rating, B. signalgrass ([7]; Rate 62 g/ha, Postemergence) | B. signalgrass plant response rating ([7]; Rate 62 g/ha) | Plant response rating, B. signalgrass ([7]; Rate 125 g/ha, Postemergence) | B. signalgrass plant response rating ([7]; Rate 125 g/ha) | Plant response rating, B. signalgrass ([7]; Rate 250 g/ha, Postemergence) | Plant response rating, B. signalgrass ([7]; Rate 250 g/ha, Postemergence as printed in head r139 (second section for compounds 26-50)) | Plant response rating, Cocklebur ([8]; Rate 62 g/ha, Postemergence) | Cocklebur plant response rating ([8]; Rate 62 g/ha) | Plant response rating, Cocklebur ([8]; Rate 125 g/ha, Postemergence) | Cocklebur plant response rating ([8]; Rate 125 g/ha) | Plant response rating, Cocklebur ([8]; Rate 250 g/ha, Postemergence) | Plant response rating, Cocklebur [8, 20] | Plant response rating, Nutsedge ([9]; Rate 62 g/ha, Postemergence) | Nutsedge plant response rating ([9]; Rate 62 g/ha, Preemergence) | Nutsedge plant response rating ([9]; Rate 125 g/ha, Postemergence) | Nutsedge plant response rating ([9]; Rate 125 g/ha, Preemergence) | Plant response rating, Nutsedge [9, 20] | Plant response rating, Blackgrass ([10]; Rate 62 g/ha, Postemergence) | Blackgrass plant response rating ([10]; Rate 62 g/ha) | Plant response rating, Blackgrass ([10]; Rate 125 g/ha, Postemergence) | Blackgrass plant response rating ([10]; Rate 125 g/ha) | Plant response rating, Blackgrass ([10]; Rate 250 g/ha, Postemergence) | Plant response rating, Blackgrass [10, 20] | Plant response rating, Sugarbeets ([11]; Rate 62 g/ha, Postemergence) | Sugarbeets plant response rating ([11]; Rate 62 g/ha, Preemergence) | Sugarbeets plant response rating ([11]; Rate 125 g/ha, Postemergence) | Plant response rating, Sugarbeets ([11]; Rate 125 g/ha, Preemergence) | Plant response rating, Sugarbeets ([11]; Rate 250 g/ha, Postemergence) | Plant response rating, Sugarbeets [11, 20] | Plant response rating, Rape (rape (Brassica napus); Rate 62 g/ha, Postemergence) | Rape plant response rating (rape (Brassica napus); Rate 62 g/ha, Preemergence) | Rape plant response rating (rape (Brassica napus); Rate 125 g/ha, Postemergence) | Rape plant response rating (rape (Brassica napus); Rate 125 g/ha, Preemergence) | Plant response rating, Rape (rape (Brassica napus); Rate 250 g/ha, Postemergence) | Plant response rating, Rape (rape (Brassica napus); [20]) | Plant response rating, Crabgrass ([12]; Rate 62 g/ha, Postemergence) | Crabgrass plant response rating ([12]; Rate 62 g/ha) | Plant response rating, Crabgrass ([12]; Rate 125 g/ha, Postemergence) | Crabgrass plant response rating ([12]; Rate 125 g/ha) | Plant response rating, Crabgrass ([12]; Rate 250 g/ha, Postemergence) | Plant response rating, Crabgrass [12, 20] | Plant response rating, Soybean (soybean (Glycine max); Rate 62 g/ha, Postemergence) | Soybean plant response rating (soybean (Glycine max); Rate 62 g/ha, Preemergence) | Soybean plant response rating (soybean (Glycine max); Rate 125 g/ha, Postemergence) | Plant response rating, Soybean (soybean (Glycine max); Rate 125 g/ha, Preemergence) | Plant response rating, Soybean (soybean (Glycine max); Rate 250 g/ha, Postemergence) | Plant response rating, Soybean (soybean (Glycine max); [20]) | Plant response rating, Giant foxtail ([13]; Rate 62 g/ha, Postemergence) | Giant foxtail plant response rating ([13]; Rate 62 g/ha, Preemergence) | Giant foxtail plant response rating ([13]; Rate 125 g/ha, Postemergence) | Giant foxtail plant response rating ([13]; Rate 125 g/ha, Preemergence) | Plant response rating, Giant foxtail ([13]; Rate 250 g/ha, Postemergence) | Plant response rating, Giant foxtail [13, 20] | Plant response rating, Morningglory ([14]; Rate 62 g/ha, Postemergence) | Morningglory plant response rating ([14]; Rate 62 g/ha, Preemergence) | Morningglory plant response rating ([14]; Rate 125 g/ha, Postemergence) | Morningglory plant response rating ([14]; Rate 125 g/ha, Preemergence) | Plant response rating, Morningglory ([14]; Rate 250 g/ha, Postemergence) | Plant response rating, Morningglory [14, 20] | Plant response rating, Bedstraw ([15]; Rate 62 g/ha, Postemergence) | Bedstraw plant response rating ([15]; Rate 62 g/ha) | Plant response rating, Bedstraw ([15]; Rate 125 g/ha, Postemergence) | Bedstraw plant response rating ([15]; Rate 125 g/ha) | Plant response rating, Bedstraw ([15]; Rate 250 g/ha, Postemergence) | Plant response rating, Bedstraw [15, 20]

— patent US6525001B1, “Substituted pyrimidine and pyridine herbicides” (Mid-American Commercialization Corporation, priority 1997, dated 2003)
